The term half-life denotes the time needed for the level to fall by half in the phase considered. By AUC(0-t) is commonly meant exposure summed from dosing to a finite time, without extrapolation to infinity. For orientation: clearance means the volume of plasma or blood freed of the substance per unit of time. One may read the Vd as a proportionality between amount in the body and measured concentration, not a real space.

The values that follow come from publication PMC2362153 (British Journal of Cancer, 1999).

For series [1] the following is noted: cited from earlier work.
Series [2] is described as follows: Plasma pharmacokinetics of doxorubicin and metabolites after i.v. bolus in wild-type and mdr1a(-/-) mice (HPLC). Particulars: for half-life / concentration at 1 h / concentration at 4 h / concentration at 24 h / AUC(0-t) / clearance / Vd: female, FVB, mouse, iv; for half-life: in vivo, t1/2(), elimination half-life; for half-life / AUC(0-t) / clearance / Vd: 5 mg/kg; for concentration at 1 h / concentration at 4 h / concentration at 24 h / AUC(0-t) / clearance / Vd: plasma; for concentration at 1 h / concentration at 4 h / concentration at 24 h: 5 mg kg-1, Plasma level; for concentration at 1 h: 1 h after i.v. 5 mg kg-1 doxorubicin; for concentration at 4 h: 4 h after i.v. 5 mg kg-1 doxorubicin; for concentration at 24 h: 24 h after i.v. 5 mg kg-1 doxorubicin; for AUC(0-t): AUC(0-64), area under the plasma concentration-time curve up to 64 h; for clearance: Cl; for Vd: volume of distribution. The text has this: (§1) Blank human plasma was obtained from healthy donors. […] All biological specimens were stored at -20C until analysis. […] However, […]

Series [3] in a line: Urinary and faecal excretion of doxorubicin and metabolites within 96 h (metabolic cages). Particulars: for Excretion in faeces / Excretion in urine: within 96 h after i.v. 5 mg kg-1 doxorubicin.
Description: Drug and metabolite concentrations were determined in plasma, tissues, urine and faeces by high-performance liquid chromatography. […] The animals were housed and handled according to institutional guidelines. Food (Hope Farms, Woerden, The Netherlands) and acidified water were given ad libitum. […] Bovine serum albumin (BSA) was obtained from Organon Teknika (Boxtel, The Netherlands). All other reagents were of analytical or Lichrosolv gradient grade and were purchased from E Merck (Darmstadt, Germany). Water was purified by the Milli-Q Plus system (Millipore, Milford, USA). Blank human plasma was obtained from healthy donors. […] The excretion study was performed with two groups of six animals, whereas in the other pharmacokinetic experiments three or four animals were used per time point. Tissue and blood samples were taken at 1, 4 and 24 h after drug adminis- tration. Blood was obtained by orbital bleeding under diethyl ether anaesthesia and collected in heparinized tubes. The animals were sacrificed by cervical dislocation to collect the following tissues: brain, skeletal muscle, colon, caecum, small gut, stomach, liver (without gall bladder), kidney, lung, spleen, heart, ovary, uterus and breast. The tissues were homogenized with a Polytron tissue homogenizer (Kinematica, Littau, Switzerland) in 4% (w/v) BSA in water, resulting in final concentrations of approximately 0.05-0.2 g tissue ml-1. Additional blood samples were obtained at 5, 15, 30 and 45 min and at 2, 8, 16, 30, 40, 56 and 64 h after drug administration. Blood samples were centrifuged (10 min, 2000 g, 4C) to separate the plasma fraction, which was stored for analysis. Urine and faeces from mice kept in Ruco Type M/1 stain- less-steel metabolic cages (Valkenswaard, The Netherlands) were collected during time intervals of 0-8, 8-24, 24-48, 48-72 and 72-96 h after drug administration. Homogenization of faeces in 4% (w/v) BSA in water (0.03-0.1 g faeces ml-1) was according to the procedure described above for tissue specimens. All biological specimens were stored at -20C until analysis. […] In brief, dilutions of faeces homogenate (20-fold) and urine (100-fold) were prepared in blank human plasma, all other specimens were used without further dilution.
A further series concerns mdr1a transfected cells. Set-up: method as in Tang-Wai et al, 1995. The conditions noted are these: ref Tang-Wai et al, 1995; cited from earlier work.
For series [4] the following is noted: mouse, in vivo.
Description: as §1

Series [5] can be described thus: Tissue distribution of doxorubicin and metabolites in wild-type and mdr1a(-/-) mice (HPLC). Particulars: 24 h after drug administration.
Description: as §1

For series [6] the following is noted: over 48 h, ref Van Asperen et al, 1996, cited from earlier work.
Where [7] appears, read: mdr1a(-/-) mice, i.v. bolus 5 mg kg-1.
Setting [8] is: wild-type mice, i.v. bolus 5 mg kg-1.

Read-outs that look alike come from different tables or passages of the source.

cyclosporin A: in series [1] (non-tumour-bearing mice, ref Colombo et al, 1994, Bellamy et al, 1995, Gonzalez et al), the “mortality on co-administration with doxorubicin” value is listed as “high mortality”.
For the compound `COc1cccc2c1C(=O)c1c(O)c3c(c(O)c1C2=O)C[C@@](O)(C(=O)CO)C[C@@H]3O[C@H]1C[C@H](N)[C@H](O)[C@H](C)O1` [doxorubicin], in series [2] (setting [7]), the half-life was 24.8 h, the AUC(0-t) was 2.27 µM·h, the clearance is 60 mL/min/kg and the distribution volume (Vd) came to 128 L/kg. In series [2] (setting [8]), the half-life was 15.7 h, the AUC(0-t) amounted to 1.82 µM·h, the clearance is 75 mL/min/kg and the Vd is 101 L/kg. In series [2] (mdr1a(-/-) mice), the concentration at 1 h worked out at 110 nM, the concentration at 4 h is 66.2 nM and the concentration at 24 h stood at 28.2 nM. Further, in series [2] (wild-type mice), the concentration at 1 h turned out to be 130 nM, the concentration at 4 h stood at 70.9 nM and the concentration at 24 h was 16.3 nM. Besides, in series [2] (i.v. bolus 5 mg kg-1), the “AUC, mdr1a(-/-) in comparison with wild-type mice” value is reported as 1.2 fold; the “Vd, mdr1a(-/-) in comparison with wild-type mice” value was 1.3 fold; the “terminal half-life, mdr1a(-/-) in comparison with wild-type mice” value was determined as 1.6 fold. Also, the “dose excreted unchanged in faeces” value in series [3] (within 96 h after administration, wild-type mice) amounted to 5%. In series [3] (mdr1a(-/-) mice), the Excretion in faeces is on record as 4.1 percentage of the administered dose and the Excretion in urine is listed as 15.4 percentage of the administered dose. In addition, in series [3] (wild-type mice), the Excretion in faeces is recorded as 5.2 percentage of the administered dose and the Excretion in urine is reported as 10.9 percentage of the administered dose. For the same compound, the “resistance of mdr1a transfected cells in comparison with non-P-glycoprotein-expressing parental cells” value in the series on mdr1a transfected cells is given as 35 fold. In series [1] (ref Bellamy et al, 1995), the “doxorubicin concentration in heart on co-administration of reversal agent” value is given as “up to twofold higher”. In series [4], the “tolerability of dose level” value is on record as “well tolerated”. Also, the “absolute concentration in hearts of mdr1a(-/-) mice compared with wild-type” value in series [5] is reported as “more than twofold higher”.
As to `CC[C@]1(O)C[C@@H]2CN(CCc3c([nH]c4ccccc34)[C@@](C(=O)OC)(c3cc4c(cc3OC)N(C)[C@H]3[C@@](O)(C(=O)OC)[C@H](OC(C)=O)[C@]5(CC)C=CCN6CC[C@]43[C@@H]65)C2)C1` [vinblastine], the “resistance of mdr1a transfected cells in comparison with non-P-glycoprotein-expressing parental cells” value in the series with mdr1a transfected cells is on record as 53 fold. For the same compound, the “i.v. administered dose excreted unchanged in the faeces” value in series [6] (mdr1a(-/-) mice) is listed as 10%; in series [6] (wild-type mice), 24%.
